Key:
Test in all cases: cells
DEL = format: functional, cell-based, Homo sapiens; conditions: Homo sapiens, DEL;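 also: growth inhibition of the human DEL cell line, read out with a cell viability assay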
Description: SANGER: Inhibition of human DEL cell growth in a cell viability assay.

CGTH-W-1 = format: functional, cell-based, Homo sapiens; conditions: Homo sapiens, CGTH-W-1;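 also: growth inhibition of human CGTH-W-1 cells measured by cell viability assay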
Description: SANGER: Inhibition of human CGTH-W-1 cell growth in a cell viability assay.

RS4-11 = format: functional, cell-based, Homo sapiens; conditions: Homo sapiens, RS4-11;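 also: growth inhibition of RS4-11 cells, read out by a cell viability assay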
Description: SANGER: Inhibition of human RS4-11 cell growth in a cell viability assay.

GAK = format: functional, cell-based, Homo sapiens; conditions: Homo sapiens, GAK;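 also: cell growth inhibition read out by a cell viability assay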
Description: SANGER: Inhibition of human GAK cell growth in a cell viability assay.

NCI-H1092 = format: functional, cell-based, Homo sapiens; conditions: Homo sapiens, NCI-H1092;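 also: cell growth inhibition measured with a cell viability assay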
Description: SANGER: Inhibition of human NCI-H1092 cell growth in a cell viability assay.

NOMO-1 = format: functional, cell-based, Homo sapiens; conditions: Homo sapiens, NOMO-1;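 also: growth inhibition of human NOMO-1 cells measured by a cell viability assay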
Description: SANGER: Inhibition of human NOMO-1 cell growth in a cell viability assay.

COLO-320-HSR = format: functional, cell-based, Homo sapiens; conditions: Homo sapiens, COLO-320-HSR;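 also: growth inhibition of COLO-320-HSR cells, determined with a cell viability assay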
Description: SANGER: Inhibition of human COLO-320-HSR cell growth in a cell viability assay.

HCE-4 = format: functional, cell-based; conditions: Homo sapiens;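 also: cell viability assay measuring inhibition of growth in the human HCE-4 cell line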
Description: SANGER: Inhibition of human HCE-4 cell growth in a cell viability assay.

HEL = format: functional, cell-based, Homo sapiens; conditions: Homo sapiens, HEL;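 also: growth inhibition of HEL cells, read out with a cell viability assay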
Description: SANGER: Inhibition of human HEL cell growth in a cell viability assay.

RKO = format: functional, cell-based, Homo sapiens; conditions: Homo sapiens, RKO;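 also: growth inhibition of human RKO cells, read out with a cell viability assay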
Description: SANGER: Inhibition of human RKO cell growth in a cell viability assay.

LS-411N = format: functional, cell-based, Homo sapiens; conditions: Homo sapiens, LS-411N
NB10 = format: functional, cell-based, Homo sapiens; conditions: Homo sapiens, NB10;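 also: growth inhibition of NB10 cells, read out by a cell viability assay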
Description: SANGER: Inhibition of human NB10 cell growth in a cell viability assay.

A498 = format: functional, cell-based, Homo sapiens; conditions: Homo sapiens, A498;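 also: growth inhibition of human A498 cells, read out with a cell viability assay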
Description: SANGER: Inhibition of human A498 cell growth in a cell viability assay.

KM-H2 = format: functional, cell-based, Homo sapiens; conditions: Homo sapiens, KM-H2;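 also: growth inhibition of KM-H2 cells, read out by a cell viability assay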
Description: SANGER: Inhibition of human KM-H2 cell growth in a cell viability assay.

TK-10 = format: functional, cell-based, Homo sapiens; conditions: Homo sapiens, TK-10;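 also: growth inhibition of TK-10 cells, read out in a cell viability assay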
Description: SANGER: Inhibition of human TK10 cell growth in a cell viability assay.

J-RT3-T3-5 = format: functional, cell-based, Homo sapiens; conditions: Homo sapiens, J-RT3-T3-5;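 also: cell viability assay measuring growth inhibition of human J-RT3-T3-5 cells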
Description: SANGER: Inhibition of human J-RT3-T3-5 cell growth in a cell viability assay.

C8166 = format: functional, cell-based, Homo sapiens; conditions: Homo sapiens, C8166;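 also: growth inhibition of human C8166 cells measured by a cell viability assay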
Description: SANGER: Inhibition of human C8166 cell growth in a cell viability assay.

COLO-684 = format: functional, cell-based, Homo sapiens; conditions: Homo sapiens, COLO-684
Description: SANGER: Inhibition of human COLO-684 cell growth in a cell viability assay.

TE-8 = format: functional, cell-based, Homo sapiens; conditions: Homo sapiens, TE-8;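 also: growth inhibition of TE-8 cells, measured with a cell viability readout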
Description: SANGER: Inhibition of human TE-8 cell growth in a cell viability assay.

D283 Med = format: functional, cell-based, Homo sapiens; conditions: Homo sapiens, D283 Med
Description: SANGER: Inhibition of human D-283MED cell growth in a cell viability assay.

UACC-257 = format: functional, cell-based, Homo sapiens; conditions: Homo sapiens, UACC-257
Description: SANGER: Inhibition of human UACC-257 cell growth in a cell viability assay.

NCI-H526 = format: functional, cell-based, Homo sapiens; conditions: Homo sapiens, NCI-H526;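 also: growth inhibition of the human NCI-H526 cell line, measured by a cell viability assay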
Description: SANGER: Inhibition of human NCI-H526 cell growth in a cell viability assay.

NCI-H1770 = format: functional, cell-based, Homo sapiens; conditions: Homo sapiens, NCI-H1770;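 also: growth inhibition of NCI-H1770 cells determined with a viability readout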
Description: SANGER: Inhibition of human NCI-H1770 cell growth in a cell viability assay.

L-428 = format: functional, cell-based, Homo sapiens; conditions: Homo sapiens, L-428
Description: SANGER: Inhibition of human L-428 cell growth in a cell viability assay.

SNU-5 = format: functional, cell-based, Homo sapiens; conditions: Homo sapiens, SNU-5;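 also: cell viability readout used to measure growth inhibition in human NCI-SNU-5 cells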
Description: SANGER: Inhibition of human NCI-SNU-5 cell growth in a cell viability assay.

U-87 MG = format: functional, cell-based, Homo sapiens, U-87MG ATCC; conditions: Homo sapiens, U-87 MG;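 also: growth inhibition of the cells measured with a viability assay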
Description: SANGER: Inhibition of human U-87-MG cell growth in a cell viability assay.

OVCAR-4 = format: functional, cell-based, Homo sapiens; conditions: Homo sapiens, OVCAR-4;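 also: growth inhibition of human OVCAR-4 cells, measured with a cell viability assay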
Description: SANGER: Inhibition of human OVCAR-4 cell growth in a cell viability assay.

BT-474 = format: functional, cell-based, Homo sapiens; conditions: Homo sapiens, BT-474
Description: SANGER: Inhibition of human BT-474 cell growth in a cell viability assay.

IST-SL1 = format: functional, cell-based, Homo sapiens; conditions: Homo sapiens, IST-SL1;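 also: growth inhibition of human IST-SL1 cells, read out with a cell viability assay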
Description: SANGER: Inhibition of human IST-SL1 cell growth in a cell viability assay.

NCI-H69 = format: functional, cell-based, Homo sapiens; conditions: Homo sapiens, NCI-H69;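 also: growth inhibition of the cell line, read out with a cell viability assay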
Description: SANGER: Inhibition of human NCI-H69 cell growth in a cell viability assay.

PSN1 = format: functional, cell-based, Homo sapiens; conditions: Homo sapiens, PSN1;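 also: suppression of growth of human PSN1 cells, read out by a cell viability assay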
Description: SANGER: Inhibition of human PSN1 cell growth in a cell viability assay.

NKM-1 = format: functional, cell-based, Homo sapiens; conditions: Homo sapiens, NKM-1;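 also: growth inhibition of NKM-1 cells, read out with a cell viability assay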
Description: SANGER: Inhibition of human NKM-1 cell growth in a cell viability assay.

U-266 = format: functional, cell-based, Homo sapiens; conditions: Homo sapiens, U-266
Description: SANGER: Inhibition of human U-266 cell growth in a cell viability assay.

EW-13 = format: functional, cell-based, Homo sapiens; conditions: Homo sapiens, EW-13; read-out: IC50;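 also: growth inhibition of EW-13 cells, read out with a cell viability assay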
Description: SANGER: Inhibition of human EW-13 cell growth in a cell viability assay.

DU-4475 = format: functional, cell-based, Homo sapiens; conditions: Homo sapiens, DU-4475
Description: SANGER: Inhibition of human DU-4475 cell growth in a cell viability assay.

SNU1 = format: functional, cell-based, Homo sapiens; conditions: Homo sapiens, SNU1;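 also: growth inhibition of human NCI-SNU-1 cells, measured with a cell viability assay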
Description: SANGER: Inhibition of human NCI-SNU-1 cell growth in a cell viability assay.

DOHH-2 = format: functional, cell-based, Homo sapiens; conditions: Homo sapiens, DOHH-2;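 also: growth inhibition of human DOHH-2 cells, read out with a cell viability assay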
Description: SANGER: Inhibition of human DOHH-2 cell growth in a cell viability assay.

COLO-800 = format: functional, cell-based, Homo sapiens; conditions: Homo sapiens, COLO-800;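 also: growth inhibition of COLO-800 cells, read out with a cell viability assay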
Description: SANGER: Inhibition of human COLO-800 cell growth in a cell viability assay.

Becker = format: functional, cell-based, Homo sapiens; conditions: Homo sapiens, Becker;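 also: growth inhibition of Becker cells, read out with a cell viability assay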
Description: SANGER: Inhibition of human Becker cell growth in a cell viability assay.

SNU-C2B = format: functional, cell-based; conditions: Homo sapiens;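 also: cell viability readout used to measure compound-driven suppression of SNU-C2B cell proliferation, IC50 marking half-maximal growth inhibition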
Description: SANGER: Inhibition of human SNU-C2B cell growth in a cell viability assay.

DMS-114 = format: functional, cell-based, Homo sapiens; conditions: Homo sapiens, DMS-114
COLO-829 = format: functional, cell-based, Homo sapiens; conditions: Homo sapiens, COLO-829
Description: SANGER: Inhibition of human COLO-829 cell growth in a cell viability assay.

SK-NEP-1 = format: functional, cell-based, Homo sapiens; conditions: Homo sapiens, SK-NEP-1;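 also: growth inhibition of human SK-NEP-1 cells, read out by a cell viability assay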
Description: SANGER: Inhibition of human SK-NEP-1 cell growth in a cell viability assay.

ATN-1 = format: functional, cell-based, Homo sapiens; conditions: Homo sapiens, ATN-1;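 also: growth inhibition of human ATN-1 cells, read out with a cell viability assay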
Description: SANGER: Inhibition of human ATN-1 cell growth in a cell viability assay.

A704 = format: functional, cell-based; conditions: Homo sapiens;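 also: growth inhibition of human A704 cells, read out with a cell viability assay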
Description: SANGER: Inhibition of human A704 cell growth in a cell viability assay.

NCI-N87 = format: functional, cell-based; conditions: Homo sapiens;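 also: growth inhibition of human NCI-N87 cells, read out with a cell viability assay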
Description: SANGER: Inhibition of human NCI-N87 cell growth in a cell viability assay.

NEC8 = format: functional, cell-based, Homo sapiens; conditions: Homo sapiens, NEC8;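 also: growth inhibition of human NEC8 cells, read out by a cell viability assay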
Description: SANGER: Inhibition of human NEC8 cell growth in a cell viability assay.

LXF-289 cell line = format: functional, cell-based; conditions: Homo sapiens
Description: SANGER: Inhibition of human LXF-289 cell growth in a cell viability assay.

CTV-1 = format: functional, cell-based, Homo sapiens; conditions: Homo sapiens, CTV-1;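 also: growth inhibition of the cell line, read out with a cell viability assay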
Description: SANGER: Inhibition of human CTV-1 cell growth in a cell viability assay.

Work on CCCCCCCCCCCC1=C(O)C(=O)C=C(O)C1=O [EMBELIN] yielded an IC50 (DEL) of 10400 nM, an IC50 (CGTH-W-1) of 16800 nM and an IC50 (RS4-11) of 10500 nM. The IC50 (GAK) was 11700 nM, the IC50 (NCI-H1092) was > 32000 nM and the IC50 (NOMO-1) was 12300 nM. It also gave an IC50 (COLO-320-HSR) of 17100 nM, an IC50 (HCE-4) of 8560 nM and an IC50 (HEL) of 11200 nM. For the same compound, the IC50 (RKO) was 2010 nM, the IC50 (LS-411N) was 7490 nM and the IC50 (NB10) was > 32000 nM. The IC50 (A498) was > 32000 nM, the IC50 (KM-H2) was 26500 nM and the IC50 (TK-10) was > 32000 nM. It also gave an IC50 (J-RT3-T3-5) of 6090 nM, an IC50 (C8166) of 7640 nM and an IC50 (COLO-684) of 20600 nM. The IC50 (TE-8) was 11000 nM, the IC50 (D283 Med) was 14700 nM and the IC50 (UACC-257) was > 32000 nM. For the same compound, the IC50 (NCI-H526) was > 32000 nM, the IC50 (NCI-H1770) was > 32000 nM and the IC50 (L-428) was 5390 nM. The IC50 (SNU-5) was > 32000 nM, the IC50 (U-87 MG) was > 32000 nM and the IC50 (OVCAR-4) was 12300 nM. For the same compound, the IC50 (BT-474) was > 32000 nM, the IC50 (IST-SL1) was > 32000 nM and the IC50 (NCI-H69) was > 32000 nM. For the same compound, the IC50 (PSN1) was 5410 nM, the IC50 (NKM-1) was > 32000 nM and the IC50 (U-266) was > 32000 nM. The IC50 (EW-13) was 9670 nM, the IC50 (DU-4475) was 13200 nM and the IC50 (SNU1) was > 32000 nM. For the same compound, the IC50 (DOHH-2) was 7570 nM, the IC50 (COLO-800) was > 32000 nM and the IC50 (Becker) was 15800 nM. The IC50 (SNU-C2B) was > 32000 nM, the IC50 (DMS-114) was > 32000 nM and the IC50 (COLO-829) was 5290 nM. For the same compound, the IC50 (SK-NEP-1) was 15100 nM, the IC50 (ATN-1) was > 32000 nM and the IC50 (A704) was 10900 nM. For the same compound, the IC50 (NCI-N87) was > 32000 nM, the IC50 (NEC8) was 6890 nM and the IC50 (LXF-289 cell line) was 9000 nM. For the same compound, the IC50 (CTV-1) was 9370 nM.
C/C(=C\c1csc(C)n1)[C@@H]1C[C@@H]2O[C@]2(C)CCC[C@H](C)[C@H](O)[C@@H](C)C(=O)C(C)(C)[C@@H](O)CC(=O)O1 [PATUPILONE] gave an IC50 (DEL) of 4.29 nM, an IC50 (CGTH-W-1) of 2.8 nM and an IC50 (RS4-11) of 2.02 nM. For the same compound, the IC50 (GAK) was 13.5 nM, the IC50 (NCI-H1092) was > 32 nM and the IC50 (NOMO-1) was 8.55 nM. It also gave an IC50 (COLO-320-HSR) of 5.21 nM, an IC50 (HCE-4) of 1.3 nM and an IC50 (HEL) of 4.14 nM. For the same compound, the IC50 (RKO) was 0.0647 nM, the IC50 (LS-411N) was 23.6 nM and the IC50 (NB10) was 11 nM. For the same compound, the IC50 (A498) was > 32 nM, the IC50 (KM-H2) was 9.06 nM and the IC50 (TK-10) was 2.05 nM. For the same compound, the IC50 (J-RT3-T3-5) was 13.5 nM, the IC50 (C8166) was 31.7 nM and the IC50 (COLO-684) was 6.97 nM. For the same compound, the IC50 (TE-8) was 0.111 nM, the IC50 (D283 Med) was > 32 nM and the IC50 (UACC-257) was 29.7 nM. The IC50 (NCI-H526) was 7.24 nM, the IC50 (NCI-H1770) was 0.907 nM and the IC50 (L-428) was > 32 nM. The IC50 (SNU-5) was 30.4 nM, the IC50 (U-87 MG) was 21.8 nM and the IC50 (OVCAR-4) was 1.61 nM. It also gave an IC50 (BT-474) of 13.2 nM, an IC50 (IST-SL1) of 6.37 nM and an IC50 (NCI-H69) of 14.8 nM. For the same compound, the IC50 (PSN1) was 0.173 nM, the IC50 (NKM-1) was 2.1 nM and the IC50 (U-266) was 9.72 nM. The IC50 (EW-13) was 0.903 nM, the IC50 (DU-4475) was 2.38 nM and the IC50 (SNU1) was > 32 nM. For the same compound, the IC50 (DOHH-2) was 8.37 nM, the IC50 (COLO-800) was > 32 nM and the IC50 (Becker) was 2.86 nM. The IC50 (SNU-C2B) was 4.3 nM, the IC50 (DMS-114) was > 32 nM and the IC50 (COLO-829) was > 32 nM. It also gave an IC50 (SK-NEP-1) of 10 nM, an IC50 (ATN-1) of 3.47 nM and an IC50 (A704) of 14.6 nM. It also gave an IC50 (NCI-N87) of 30.3 nM, an IC50 (NEC8) of 3.53 nM and an IC50 (LXF-289 cell line) of 0.227 nM. It also gave an IC50 (CTV-1) of 5.16 nM.
